Measured values reported in US20260347346A1, “SUBSTITUTED 6-(PYRIMIDIN-4-YL)QUINOLINE COMPOUNDS AS CYCLIN DEPENDENT KINASE INHIBITORS” (BeOne Medicines I GmbH, priority 2022, published 2026).

Assays:
CDK4/Cyclin D1 = CDK4/Cyclin D1 (Homo sapiens, UniProt P11802); assay: inhibition of CDK4/Cyclin D1 kinase, TR-FRET; format: biochemical; settings: CDK4/Cyclin D1, 1 mM ATP, 0.15 μM Rb (Ser780)-biotin substrate, pH 7.0, 60 min preincubation, 120 min reaction, room temperature; read-out: CDK4D1 IC50
Sequence of CDK4/Cyclin D1 (P11802 whole entry): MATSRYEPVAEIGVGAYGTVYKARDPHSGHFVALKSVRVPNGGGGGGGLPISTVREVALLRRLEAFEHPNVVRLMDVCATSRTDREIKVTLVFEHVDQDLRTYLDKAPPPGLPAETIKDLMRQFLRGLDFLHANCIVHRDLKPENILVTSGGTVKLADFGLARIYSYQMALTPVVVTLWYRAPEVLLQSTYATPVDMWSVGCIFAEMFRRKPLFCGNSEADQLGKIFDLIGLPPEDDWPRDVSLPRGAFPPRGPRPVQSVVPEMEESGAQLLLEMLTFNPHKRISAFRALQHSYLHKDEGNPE
Sequence of CDK4/Cyclin D1 (P24385 whole entry partner): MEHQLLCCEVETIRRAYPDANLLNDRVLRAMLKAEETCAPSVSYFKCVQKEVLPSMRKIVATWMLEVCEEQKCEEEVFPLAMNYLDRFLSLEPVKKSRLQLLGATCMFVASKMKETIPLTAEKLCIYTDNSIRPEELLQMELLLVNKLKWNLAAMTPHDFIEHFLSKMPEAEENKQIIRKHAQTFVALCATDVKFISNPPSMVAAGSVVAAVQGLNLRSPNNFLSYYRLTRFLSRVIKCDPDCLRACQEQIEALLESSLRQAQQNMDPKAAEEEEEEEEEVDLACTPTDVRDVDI
Protocol: (§1) Compounds disclosed herein were tested for inhibition of CDK4/Cyclin D1 or CDK6/Cyclin D3 kinase in an assay based on the time-resolved fluorescence-resonance energy transfer (TR-FRET) methodology. The assay was carried out in 384-well low volume black plates in a reaction mixture containing CDK4/Cyclin D1 or CDK6/Cyclin D3, 1 mM ATP, 0.15 μM Rb (Ser780)-biotin substrate and 0-10 μM compound in buffer containing 50 mM HEPES pH7.0, 0.02% NaN3, 0.01% BSA, 0.1 mM Orthovanadate, 50 mM MgCl2, 1 mM DTT and 0.005% Tween-20. The kinase was incubated with compound for 60 minutes at room temperature and the reaction was initiated by the addition of ATP and Rb (Ser780)-biotin substrate. After reaction at room temperature for 120 minutes, an equal volume of stop/detection solution was added according to the manufacture's instruction (Cisbio Bioassays). The stop/detection solution contained Streptavidin-XL665 and Anti-pRb (Ser780) mAb-Eu Cryptate in Detection buffer (Cisbio Bioassays). Plates were incubated at room temperature for 60 minutes, and the TR-FRET signals (ex337 nm, em665 nm/620 nm) were recorded on a PHERAstar FSX plate reader (BMG Labtech). The inhibition percentage of CDK4/Cyclin D1 or CDK6/Cyclin D3 kinase activity in presence of increasing concentrations of compounds was calculated based on the ratio of fluorescence at 665 nm to that at 620 nm. The IC50 for each compound was derived from fitting the data to the four-parameter logistic equation by Dotmatics.

CDK6/Cyclin D3 = CDK6/Cyclin D3 (Homo sapiens, UniProt Q00534); assay: inhibition of CDK6/Cyclin D3 kinase, TR-FRET; format: biochemical; settings: CDK6/Cyclin D3, 1 mM ATP, 0.15 μM Rb (Ser780)-biotin substrate, pH 7.0, 60 min preincubation, 120 min reaction, room temperature; read-out: CDK6D3 IC50
Sequence of CDK6/Cyclin D3 (Q00534 whole entry): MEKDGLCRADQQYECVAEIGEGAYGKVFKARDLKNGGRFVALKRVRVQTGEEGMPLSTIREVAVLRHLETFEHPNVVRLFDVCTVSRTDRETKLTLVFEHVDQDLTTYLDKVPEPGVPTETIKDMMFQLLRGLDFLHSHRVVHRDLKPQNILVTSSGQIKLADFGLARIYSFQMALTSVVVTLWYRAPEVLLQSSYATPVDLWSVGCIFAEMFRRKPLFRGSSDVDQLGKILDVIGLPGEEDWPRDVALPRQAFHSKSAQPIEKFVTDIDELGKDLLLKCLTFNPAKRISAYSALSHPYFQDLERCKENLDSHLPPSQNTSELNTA
Sequence of CDK6/Cyclin D3 (P30281 whole entry partner): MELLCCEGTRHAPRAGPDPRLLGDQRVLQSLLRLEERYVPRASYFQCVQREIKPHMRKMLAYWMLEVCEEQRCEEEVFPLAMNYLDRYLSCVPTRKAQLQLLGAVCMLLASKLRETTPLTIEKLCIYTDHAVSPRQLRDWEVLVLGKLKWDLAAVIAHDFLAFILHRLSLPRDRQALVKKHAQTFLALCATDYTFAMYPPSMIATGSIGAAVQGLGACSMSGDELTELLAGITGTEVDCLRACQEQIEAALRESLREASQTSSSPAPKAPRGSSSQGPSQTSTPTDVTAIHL
Protocol: as §1

Compound | IC50 (CDK4/Cyclin D1) | IC50 (CDK6/Cyclin D3)
CC(C)(C)OC(=O)N1CCC(Nc2ncc(F)c(-c3cc(F)c4nccc(C(C)(C)O)c4c3)n2)CC1 [Example A4, tert-butyl 4-((5-fluoro-4-(8-fluoro-4-(2-hydroxypropan-2-yl)quinolin-6-yl)pyrimidin-2-yl)amino) piperidine-1-carboxylate] | 171 nM | 1700 nM
C[C@@H](N)c1ccnc2c(F)cc(-c3nc(N[C@@H]4CCOC[C@H]4O)ncc3F)cc12 [Example A7, (3S,4R)-4-((4-(4-((R)-1-aminoethyl)-8-fluoroquinolin-6-yl)-5-fluoropyrimidin-2-yl)amino)tetrahydro-2H-pyran-3-ol] | 97 nM | 2380 nM
COC(=O)c1ccnc2c(F)cc(-c3nc(N[C@@H]4CCOC[C@H]4O)ncc3F)cc12 [Example A1, methyl 8-fluoro-6-(5-fluoro-2-(((3S,4R)-3-hydroxytetrahydro-2H-pyran-4-yl)amino)pyrimidin-4-yl) quinoline-4-carboxylate] | 122 nM | 688 nM
CC(C)(O)c1ccnc2c(F)cc(-c3nc(NC4CCNCC4)ncc3F)cc12 [Example A5, 2-(8-fluoro-6-(5-fluoro-2-(piperidin-4-ylamino)pyrimidin-4-yl)quinolin-4-yl) propan-2-ol] | 83 nM | 220 nM

The next molecules have a lower IC50 (CDK4/Cyclin D1) than those just listed; values first:

IC50 (CDK4/Cyclin D1) | IC50 (CDK6/Cyclin D3) | Compound
33 nM | 249 nM | Cc1cc(C(C)(C)O)c2cc(-c3nc(N[C@@H]4CCOC[C@H]4O)ncc3F)cc(F)c2n1 [Example A3, (3S,4R)-4-((5-fluoro-4-(8-fluoro-4-(2-hydroxypropan-2-yl)-2-methylquinolin-6-yl)pyrimidin-2-yl)amino)tetrahydro-2H-pyran-3-ol]
32 nM | 760 nM | C[C@H](N)c1ccnc2c(F)cc(-c3nc(N[C@@H]4CCOC[C@H]4O)ncc3F)cc12 [Example A6, (3S,4R)-4-((4-(4-((S)-1-aminoethyl)-8-fluoroquinolin-6-yl)-5-fluoropyrimidin-2-yl)amino)tetrahydro-2H-pyran-3-ol]
12 nM | 84 nM | CC(C)(O)c1ccnc2c(F)cc(-c3nc(N[C@@H]4CCOC[C@H]4O)ncc3F)cc12 [Example A2, (3S,4R)-4-((5-fluoro-4-(8-fluoro-4-(2-hydroxypropan-2-yl)quinolin-6-yl)pyrimidin-2-yl)amino)tetrahydro-2H-pyran-3-ol]
